From PubChem BioAssay (NCI) come the findings set out here.

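Dose response: 5 concentrations. Exposure: 48 h. Format: 96-well plates. Endpoint: linear interpolation; highest concentration if not reached. TGI is the concentration that stops growth completely.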

Among the test systems are CCRF-CEM leukemia; EKVX NSCLC; HCC-2998 colon; MDA-MB-435; NCI-H460 lung; SF-268 CNS; SK-OV-3 ovarian; SNB-19 CNS; SR leukemia; UO-31 renal; SK-MEL-2 melanoma.
Common to all, as to test: NCI-60 cell line screen, 48 h

With `CN(C)CCN(C)P12(Oc3ccccc3O1)Oc1c(Cl)c(Cl)c(Cl)c(Cl)c1O2`, the TGI was 92.2 µM in the assay on CCRF-CEM leukemia; greater than 100 µM in the assay with EKVX NSCLC; greater than 100 µM with HCC-2998 colon; greater than 100 µM in the assay with MDA-MB-435; greater than 100 µM in the assay with NCI-H460 lung; greater than 100 µM with SF-268 CNS. The TGI with SK-OV-3 ovarian, with SNB-19 CNS, in the assay on SR leukemia and with UO-31 renal was greater than 100 µM throughout.

For the compound `CC(C)[C@@H]1CC[C@@H](C)C[C@H]1OC(=O)c1c2n(c3ccccc13)C[C@H]1OC(C)(C)O[C@@H]21`, the TGI in the assay on CCRF-CEM leukemia was greater than 100 µM; in the assay with EKVX NSCLC it was 73.8 µM; in the assay with HCC-2998 colon, greater than 100 µM; in the assay with MDA-MB-435, greater than 100 µM; with SF-268 CNS, greater than 100 µM; with SK-MEL-2 melanoma, greater than 100 µM. The TGI in the assay with SK-OV-3 ovarian was greater than 100 µM; in the assay on SR leukemia, 24.1 µM; in the assay on UO-31 renal it was greater than 100 µM.

`CCC(NC(C)c1ccccc1)C(=O)c1ccc(OCc2ccccc2)c(OCc2ccccc2)c1` (configuration not stated): the TGI with EKVX NSCLC, in the assay on HCC-2998 colon, in the assay on MDA-MB-435, in the assay with NCI-H460 lung, in the assay with SF-268 CNS and with SK-OV-3 ovarian was greater than 100 µM throughout. In addition, the TGI with SNB-19 CNS, in the assay on SR leukemia and in the assay with UO-31 renal was greater than 100 µM throughout.

In the case of `CC(=O)OI1NC(=O)c2ccccc21`, the TGI with CCRF-CEM leukemia, in the assay on EKVX NSCLC, with MDA-MB-435, with SF-268 CNS, with SK-MEL-2 melanoma and with SK-OV-3 ovarian was greater than 100 µM each time. The TGI in the assay with SNB-19 CNS, in the assay with SR leukemia and in the assay with UO-31 renal was greater than 100 µM each time.

As for `CO/C(N)=C(\C#N)N=Cc1ccc2ccccc2c1`, the TGI in the assay with CCRF-CEM leukemia, in the assay on EKVX NSCLC, with MDA-MB-435, in the assay with SF-268 CNS, in the assay on SK-MEL-2 melanoma and in the assay with SK-OV-3 ovarian was greater than 100 µM each time. For the same compound, the TGI in the assay on SR leukemia and in the assay on UO-31 renal was greater than 100 µM each time.

`COc1ccc(/C=c2\c(=O)[nH]c3nc4ccccc4c(=O)n23)cc1`: the TGI in the assay on CCRF-CEM leukemia, with EKVX NSCLC, in the assay on HCC-2998 colon, in the assay on MDA-MB-435, in the assay on SF-268 CNS and with SK-MEL-2 melanoma was greater than 100 µM in each case. For the same compound, the TGI in the assay with SK-OV-3 ovarian, with SNB-19 CNS, in the assay with SR leukemia and in the assay with UO-31 renal was greater than 100 µM throughout.

In the case of `Clc1ccc(Nc2nnc(CNc3ccc(-c4nnc(Nc5ccc(Cl)cc5)s4)cc3)s2)cc1`, the TGI in the assay with EKVX NSCLC is greater than 100 µM; with HCC-2998 colon, 48.9 µM; in the assay with MDA-MB-435, greater than 100 µM; in the assay with NCI-H460 lung, greater than 100 µM; in the assay on SF-268 CNS, greater than 100 µM; in the assay with SK-MEL-2 melanoma it was 67.6 µM. Moreover, the TGI is greater than 100 µM with SK-OV-3 ovarian, greater than 100 µM in the assay on SNB-19 CNS and 44.2 µM in the assay with UO-31 renal.

Take `O[C@]12C=C(c3nccc4c3[nH]c3ccccc34)[C@@H]3CCN(CCCC/C=C\CC1)C[C@@]31CC3/C=C\CCCCN3[C@H]12` (some centres not stated): the TGI in the assay with CCRF-CEM leukemia was greater than 29.6 µM; with EKVX NSCLC, 3.57 µM; with HCC-2998 colon, 0.936 µM; in the assay on MDA-MB-435, 1.53 µM; with NCI-H460 lung it was 2.02 µM; in the assay with SF-268 CNS, 8.59 µM. Also, the TGI came to 0.534 µM in the assay on SK-MEL-2 melanoma, 0.743 µM with SK-OV-3 ovarian, 16.2 µM in the assay with SNB-19 CNS and 0.463 µM in the assay on UO-31 renal.

Consider `CC1(C)CCN2C(=O)C34CCCC3CC21S4` (configuration not stated), for which the TGI in the assay with CCRF-CEM leukemia, in the assay with EKVX NSCLC, in the assay with MDA-MB-435, in the assay on SF-268 CNS, in the assay with SK-MEL-2 melanoma and in the assay on SK-OV-3 ovarian was greater than 100 µM in each case. For the same compound, the TGI in the assay with SNB-19 CNS, in the assay on SR leukemia and with UO-31 renal was greater than 100 µM throughout.

Consider `C=CCCC1(O)C(O)C(CO)O[C@H](O[C@@]2(CO)OC(CO)C(O)C2O)C1O` (some centres not stated), for which the TGI in the assay with CCRF-CEM leukemia, with EKVX NSCLC, in the assay on MDA-MB-435, in the assay on NCI-H460 lung, with SF-268 CNS and with SNB-19 CNS was greater than 100 µM in each case. The TGI in the assay on SR leukemia was greater than 100 µM.

Take `C[C@@H](CC(O)C(O)C(C)(C)O)C1CCC23CC12CCC1[C@@]2(C)CCC(O)C(C)(C)C2CC(OC2OC(CO)C(O)C(O)C2O)[C@]13C` (some centres not stated): the TGI with CCRF-CEM leukemia, with EKVX NSCLC, in the assay on HCC-2998 colon, with MDA-MB-435, in the assay with NCI-H460 lung and in the assay with SF-268 CNS was greater than 10 µM in each case. In addition, the TGI in the assay on SK-MEL-2 melanoma, with SK-OV-3 ovarian, in the assay on SNB-19 CNS and in the assay with UO-31 renal was greater than 10 µM each time.

Regarding `COc1ccc(C2=Nc3c(nc(OC)[nH]c3=O)NC(c3ccccc3)C2)cc1` (configuration not stated), the TGI in the assay on CCRF-CEM leukemia, with EKVX NSCLC, in the assay on MDA-MB-435, in the assay with SK-MEL-2 melanoma, in the assay on SNB-19 CNS and in the assay on SR leukemia was greater than 100 µM in each case. Moreover, the TGI with UO-31 renal is greater than 100 µM.

With `O=c1[nH]nc(Cc2ccccc2)n1/N=C/c1cccs1`, the TGI with CCRF-CEM leukemia, in the assay on EKVX NSCLC, with HCC-2998 colon, in the assay on MDA-MB-435, in the assay on NCI-H460 lung and in the assay with SF-268 CNS was greater than 100 µM throughout. Moreover, the TGI in the assay on SK-MEL-2 melanoma, in the assay on SK-OV-3 ovarian, in the assay on SNB-19 CNS and in the assay on UO-31 renal was greater than 100 µM in each case.

For the compound `O=C1N=C2SC=C(NC(=S)Nc3ccccc3)N2NC12c1ccccc1-c1ccccc12`, the TGI with CCRF-CEM leukemia, in the assay with EKVX NSCLC, with HCC-2998 colon, with MDA-MB-435, in the assay with NCI-H460 lung and in the assay on SF-268 CNS was greater than 10 µM each time. Further, the TGI with SK-OV-3 ovarian, in the assay on SNB-19 CNS, in the assay with SR leukemia and in the assay with UO-31 renal was greater than 10 µM in each case.
